Reference: paper PMC7366380, “Discovery of a Potent and Selective Covalent Inhibitor and Activity-Based Probe for the Deubiquitylating Enzyme UCHL1, with Antifibrotic Activity” (Journal of the American Chemical Society, 2020)
Several values for one entry are separate records, joined by “and”; a condition that tells them apart may be missing. Equal values may be shown once.

What was measured:
Assay in all cases: In-cell proteome-wide competitive ABPP, HEK293: other DUBs and proteins
[1] = biological target: DUBs and other proteins in HEK293 cells (Homo sapiens, UniProt O15372); conditions: for Log2 reporter intensity values, EIF3H: TMT replicates; for Log2 reporter intensity values / Log2 reporter intensity values: EIF3H: replicates A-C; for Log2 reporter intensity values: EIF3H: competition with ABP 2, DMSO substract (FC)
[2] = biological target: T1, DUBs and other proteins in HEK293 cells (Homo sapiens, UniProt P40818); conditions: for Log2 reporter intensity values: USP8: competition with ABP 2, DMSO substract (FC), replicates A-B; for Log2 reporter intensity values: USP8, DMSO subtracted
T1 sequence (P40818 1-1118): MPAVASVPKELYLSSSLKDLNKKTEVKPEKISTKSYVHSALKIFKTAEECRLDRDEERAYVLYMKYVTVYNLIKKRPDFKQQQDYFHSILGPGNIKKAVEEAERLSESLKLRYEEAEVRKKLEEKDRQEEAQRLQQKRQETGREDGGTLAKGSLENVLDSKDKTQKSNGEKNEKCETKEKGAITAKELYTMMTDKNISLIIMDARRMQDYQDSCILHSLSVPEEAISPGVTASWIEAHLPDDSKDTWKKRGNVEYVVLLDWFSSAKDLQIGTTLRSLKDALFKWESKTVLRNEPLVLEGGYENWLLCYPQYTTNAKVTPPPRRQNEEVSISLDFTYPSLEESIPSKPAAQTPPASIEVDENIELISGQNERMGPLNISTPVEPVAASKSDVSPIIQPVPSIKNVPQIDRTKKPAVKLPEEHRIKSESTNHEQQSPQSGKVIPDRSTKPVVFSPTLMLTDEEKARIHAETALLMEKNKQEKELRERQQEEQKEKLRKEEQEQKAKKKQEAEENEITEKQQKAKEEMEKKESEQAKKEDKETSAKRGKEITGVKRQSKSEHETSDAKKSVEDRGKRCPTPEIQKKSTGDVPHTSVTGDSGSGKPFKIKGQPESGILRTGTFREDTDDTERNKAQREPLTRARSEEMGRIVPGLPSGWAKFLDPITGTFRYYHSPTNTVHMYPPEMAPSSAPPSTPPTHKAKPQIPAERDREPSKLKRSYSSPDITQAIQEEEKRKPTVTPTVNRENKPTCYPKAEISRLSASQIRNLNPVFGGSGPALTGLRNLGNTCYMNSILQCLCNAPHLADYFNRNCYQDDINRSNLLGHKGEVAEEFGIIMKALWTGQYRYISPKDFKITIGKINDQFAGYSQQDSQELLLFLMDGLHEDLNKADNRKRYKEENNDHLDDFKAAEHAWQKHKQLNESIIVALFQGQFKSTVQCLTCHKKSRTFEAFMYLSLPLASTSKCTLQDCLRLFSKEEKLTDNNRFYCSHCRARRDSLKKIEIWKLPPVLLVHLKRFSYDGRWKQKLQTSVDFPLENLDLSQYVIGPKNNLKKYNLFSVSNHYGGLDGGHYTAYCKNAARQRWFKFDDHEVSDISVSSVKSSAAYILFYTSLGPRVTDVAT

[3] = biological target: T2, DUBs and other proteins in HEK293 cells (Homo sapiens, UniProt P45974); conditions: replicates A-C; for Log2 reporter intensity values: USP5: competition with ABP 2, DMSO substract (FC); for Log2 reporter intensity values: USP5, DMSO subtracted
T2 sequence (P45974 1-858): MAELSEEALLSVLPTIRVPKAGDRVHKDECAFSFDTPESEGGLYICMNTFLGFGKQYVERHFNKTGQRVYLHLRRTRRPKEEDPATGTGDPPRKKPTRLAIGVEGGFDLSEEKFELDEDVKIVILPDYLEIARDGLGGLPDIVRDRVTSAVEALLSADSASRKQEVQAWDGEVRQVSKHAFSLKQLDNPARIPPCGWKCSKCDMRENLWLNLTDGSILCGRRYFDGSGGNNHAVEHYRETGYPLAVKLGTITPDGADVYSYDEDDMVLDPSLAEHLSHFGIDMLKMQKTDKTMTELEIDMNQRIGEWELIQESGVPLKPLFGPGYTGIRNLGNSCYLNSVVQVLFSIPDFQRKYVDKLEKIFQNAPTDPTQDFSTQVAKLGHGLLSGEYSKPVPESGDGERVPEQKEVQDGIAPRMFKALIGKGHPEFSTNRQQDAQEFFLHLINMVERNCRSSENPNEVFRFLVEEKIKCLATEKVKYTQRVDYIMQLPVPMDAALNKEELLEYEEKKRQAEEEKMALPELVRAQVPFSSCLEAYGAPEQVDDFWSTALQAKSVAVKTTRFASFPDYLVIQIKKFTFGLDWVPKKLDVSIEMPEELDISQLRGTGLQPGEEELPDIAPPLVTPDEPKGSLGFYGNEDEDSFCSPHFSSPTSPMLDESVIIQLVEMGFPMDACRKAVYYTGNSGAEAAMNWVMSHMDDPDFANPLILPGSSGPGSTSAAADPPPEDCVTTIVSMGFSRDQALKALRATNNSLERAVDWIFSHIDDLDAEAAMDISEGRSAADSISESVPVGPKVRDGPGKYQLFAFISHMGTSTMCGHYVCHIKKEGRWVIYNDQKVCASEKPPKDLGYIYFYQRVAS

DUBs and other proteins in HEK293 cells (Homo sapiens, UniProt O15372), sequence (O15372 whole entry): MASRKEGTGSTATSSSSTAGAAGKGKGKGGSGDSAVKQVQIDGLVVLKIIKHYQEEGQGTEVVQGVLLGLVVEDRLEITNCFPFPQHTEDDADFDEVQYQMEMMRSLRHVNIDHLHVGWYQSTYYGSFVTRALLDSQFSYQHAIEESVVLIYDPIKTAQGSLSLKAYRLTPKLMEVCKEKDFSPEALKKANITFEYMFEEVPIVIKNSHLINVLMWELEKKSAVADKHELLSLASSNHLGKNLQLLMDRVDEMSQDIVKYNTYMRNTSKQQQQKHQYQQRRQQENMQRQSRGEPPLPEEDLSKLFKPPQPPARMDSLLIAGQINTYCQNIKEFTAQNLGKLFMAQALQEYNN

SMILES: CC(=O)O/N=C1\C(=O)N(Cc2cc(Cl)ccc2Cl)c2ccc(Cl)cc21 [LDN]
- Log2 reporter intensity values, EIF3H ([1]; 5 μM LDN-57444 (60 min) + 20 nM ABP 2 (10 min), All values): 0.06362 and 0.03651 and 0.05305
- Log2 reporter intensity values, EIF3H ([1]; 5 μM LDN-57444 (60 min) + 20 nM ABP 2 (10 min), DMSO subtracted): 0.03403 and 0.006918 and 0.02346
- Log2 reporter intensity values, EIF3H ([1]; 25 μM LDN-57444 (60 min) + 20 nM ABP 2 (10 min), All values): 0.05041 and 0.03867 and 0.01604
- Log2 reporter intensity values, EIF3H ([1]; 25 μM LDN-57444 (60 min) + 20 nM ABP 2 (10 min), DMSO subtracted): 0.02082 and 0.009076 and -0.01355
- Log2 t-test Difference ([1]; EIF3H, LDN - 5 μM): 0.02512
- Log2 reporter intensity values ([1]; EIF3H, LDN at 5 μM, DMSO subtracted): 0.03403 and 0.006918 and 0.02346
- Log2 reporter intensity values ([1]; EIF3H, LDN at 25 μM, DMSO subtracted): 0.02082 and 0.009076 and -0.01355
- Log2 reporter intensity values ([1]; EIF3H, LDN_5 μM, DMSO subtracted): 0.02373 and 0.004663 and 0.01625
- Log2 reporter intensity values ([1]; EIF3H, LDN_25 μM, DMSO subtracted): 0.01439 and 0.006167 and -0.009494
- Log2 reporter intensity values: EIF3H ([1]; LDN at 5 μM): 1.024 and 1.005 and 1.016
- Log2 reporter intensity values: EIF3H ([1]; LDN at 25 μM): 1.015 and 1.006 and 0.9907
- Log2 reporter intensity values: USP8 ([2]; LDN at 5 μM): 1.057 and 1.015
- Log2 reporter intensity values: USP8 ([2]; LDN at 25 μM): 1.052 and 0.9465
- Log2 reporter intensity values ([2]; LDN at 5 μM, replicates A-C): 0.08034 and 0.0217
- Log2 reporter intensity values ([2]; LDN at 25 μM, replicates A-C): 0.07275 and -0.07932
- Log2 reporter intensity values ([2]; LDN_5 μM, replicates A-B (C NaN)): 0.05482 and 0.0127
- Log2 reporter intensity values ([2]; LDN_25 μM, replicates A-B (C NaN)): 0.04927 and -0.05595
- Log2 reporter intensity values: USP5 ([3]; LDN at 5 μM): 1.037 and 0.9788 and 0.9532
- Log2 reporter intensity values: USP5 ([3]; LDN at 25 μM): 1.021 and 0.9648 and 0.9864
- Log2 reporter intensity values ([3]; LDN at 5 μM): 0.05306 and -0.03094 and -0.06922
- Log2 reporter intensity values ([3]; LDN at 25 μM): 0.02936 and -0.0517 and -0.01971
- Log2 reporter intensity values ([3]; LDN_5 μM): 0.03714 and -0.02154 and -0.04717
- Log2 reporter intensity values ([3]; LDN_25 μM): 0.02024 and -0.03553 and -0.01389
